Entries after “also recorded” stand apart in the source; their conditions may differ. Bridge positions count the residues as written; N and C are the ends. Square brackets hold non-standard residues; d marks the D form. Ends that are not written are not given here. Peptide text beside a SMILES is read from it. R8 = C=CCCCCCC[C@@](C)(N)C(=O)O; S5 = C=CCCC[C@](C)(N)C(=O)O
Columns and labels:
[1] = molecular target: T1, Beclin 1 coiled coil domain (Rattus norvegicus, UniProt Q91XJ1); assay: Light Scattering (LS) profile, dimer-to-monomer transition of Beclin 1 coiled coil domain; assay type: biochemical
T1 construct: thioredoxin-6xHis fusion (3C protease site) (cleaved yes); made in house; host or cells: Escherichia coli BL21 (DE3)
T1 sequence (Q91XJ1 174-266 limits assumed): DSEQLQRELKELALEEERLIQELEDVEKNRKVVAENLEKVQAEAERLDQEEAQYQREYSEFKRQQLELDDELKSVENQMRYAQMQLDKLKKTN
Source text: Tat sequence (SEQ ID NO: 13: YGRKKRRQRRR) was linked in front of all peptides except the rhodamine B labeled one to enhance cell permeability. The computationally optimized stapled peptide SP4 (SEQ ID NO: 4) was chosen and synthesized by a commercial vendor following the synthetic method pioneered by Kim et. al. (Kim, Grossmann et al. 2011) (FIG. 1C). The purified product was confirmed by mass spectroscopy and HPLC. The importance of the hydrocarbon staple in maintaining the α-helical structure of the designed peptide was confirmed by circular dichroism (CD) measurements (FIG. 1D). […] The Light Scattering (LS) profile of Beclin 1 coiled coil domain in absence of SP4 (SEQ ID NO: 4) indicates a homodimer with predicted molecular weight of 24.8 kDa.

HEK293T cells = assay: LC3 lipidation western blot in HEK293T cells; assay type: cell-based; conditions: 10 μM and 20 μM, absence or presence of chloroquine (50 μM)
Method: Transient DNA transfection was performed using Lipofectamine 2000 (Invitrogen). For Co-IP experiment to measure interaction between UVRAG and endogenous Beclin 1, FLAG-tagged UVRAG plasmids were transfected into HEK293T cells. […] For immunoblotting assay of LC3-II, p62 and EGFR degradation, FLAG-tagged UVRAG mutant plasmids were transfected into HEK293T cells, HeLa cell stably expressing GFP-LC3 and A549 NSCLC cells respectively. Cells were lysed in IP buffer (25 mM HEPES PH 7.5, 10 mM MgCl2, 150 mM NaCl, 1 mM EDTA.2Na, 1% Nonidet P-40, 1% Triton X-100 and 2% glycerol) or Laemmli sample buffer (62.5 mM Tris-HCl, pH 6.8, 2% SDS, 25% glycerol, 5% β-mercaptoethanol) with freshly added EDTA-free protease inhibitor cocktail (Roche). Protein lysate was either directly subject to immunoblot assay or Co-IP. For Co-IP, Lysates were incubated with FLAG magnetic beads (Sigma) overnight at 4° C. The beads were washed with 1×IP lysis buffer 5 times and then eluted with 2×SDS sample buffer.

[2] = test system: mutated EGFR in H1975 cell lines; assay: EGFR degradation assay in H1975 cells; assay type: cell-based; conditions: H1975 NSCLC
EGFR in HEK293T cells = assay: EGFR degradation assay in HEK293T cells; assay type: cell-based
Method: (§1) HEK293T or A549 cells in 6-well plate were washed with PBS two times and serum-starved overnight in DMEM. EGFR endocytosis was induced by incubation with DMEM medium (with 20 mM HEPES and 0.2% BSA) containing 200 ng/mL of EGF (Invitrogen). Cells were collected at each time point after EGF stimulation and lysed in Laemmli sample buffer (62.5 mM Tris-HCl, pH 6.8, 2% SDS, 25% glycerol, 5% β-mercaptoethanol). 20 μg protein lysate was collected for each time point, analyzed by SDS-PAGE and immunoblotted with anti-EGFR antibody (1:2000, Santa Cruz Biotechnology).

[3] = test system: wild type EGFR in A549 cell line; assay: EGFR degradation assay in A549 cells; assay type: cell-based; conditions: A549 NSCLC
Method: as §1

[4] = test system: GFP-tagged Beclin 1 in A549 cell; assay: Confocal colocalization with GFP-Beclin 1 in A549 cells; assay type: cell-based; conditions: A549 cells transiently expressing GFP-Beclin 1, 20 μM, 30 minutes
Method: A549 cells transiently expressing GFP-Beclin 1 were treated with 20 μM Rhodamine-SP4 (SEQ ID NO: 4) for 30 minutes and observed under a confocal microscope.

Row | dimer-to-monomer transition in Beclin 1 coiled coil domain [1] | Compound | LC3 lipidation (HEK293T cells) | EGFR degradation [2] | EGFR degradation (EGFR in HEK293T cells) | EGFR degradation [3] | colocalization with GFP-Beclin 1 [4]
1 | can induce dimer-to-monomer transition | CC[C@H](C)[C@H](NC(=O)[C@H](CC(C)C)NC(=O)[C@H](CCCNC(=N)N)NC(C)=O)C(=O)N[C@@H](CO)C(=O)N[C@@H](CCC(=O)O)C(=O)N[C@@H](CC(C)C)C(=O)N[C@]1(C)CCCCCC/C=C/CCC[C@@](C)(C(=O)N[C@@H](C)C(N)=O)NC(=O)[C@H](CCCNC(=N)N)NC(=O)[C@H](CCC(N)=O)NC(=O)[C@H](CCCCN)NC(=O)[C@H](CCC(=O)O)NC(=O)[C@H](CCCNC(=N)N)NC(=O)[C@H](CC(=O)O)NC1=O [SP4] (Ac-RLISEL[R8]DREKQR[S5]A-NH2; staple (E) 7-14; N-terminus and C-terminus assumed) | enhanced LC3 lipidation in dosage-dependent manner | significantly enhanced EGFR degradation | significantly enhanced EGFR degradation | significantly enhanced EGFR degradation | 
2 |  | Rhodamine-labeled SP4: rhodamine B labeled SP4, without Tat sequence (RLISEL[R8]DREKQR[S5]A; staple 7-14 (inferred); also: rhodamine B label, position not given here) |  |  |  |  | colocalizes; also recorded: co-localized well

Source: patent US10618939B2, “Hydrocarbon-stapled polypeptides for enhancement of endosome-lysosomal degradation” (The Hong Kong Polytechnic University, priority 2016, dated 2020)
